The values that follow are results of earlier work, collected in patent US8666675B2, “Computer method and system for predicting physical properties using a conceptual segment model” (Aspen Technology, Inc., priority 2004, dated 2014).

The conditions of this data set: in benzene, cyclohexane, and heptane; cited from earlier work.

As to `O=C([O-])c1ccccc1O.[Na+]` [sodium salicylate], the “solubility (data)” value is “very low but measurable solubility”.
